Experimental data reported in PubChem BioAssay AID1996.
≈ marks a conversion by molar mass, not a printed value.

Details: buffer; pH 7.4; 200.0 µM

solubility kinetic [µg/mL]	SMILES
> 40.3	NC(=O)c1cc(Cl)ccc1OCC(=O)NC1CC1
2.3 (≈ 6.8 µM)	Cc1cc(C)cc(NC(=O)c2cc(C)n(Cc3cccs3)c2C)c1
32.3 (≈ 94.6 µM)	CC(C)Oc1cccc(C(=O)C2CCCN(C(=O)c3ccoc3)C2)c1 (stereo unspecified)
> 38.6	Cc1ccccc1NC(=O)c1c(C)cc(=O)oc1C
> 40.2	O=C(NC(=S)NC1CCC(O)CC1)c1ccco1 (stereo unspecified)
22.4 (≈ 89.7 µM)	COc1cc(Cl)c(C)cc1Nc1ncccn1
34.2 (≈ 99.9 µM)	COc1cccc(SCC(=O)N2CCN(c3ccccc3)CC2)c1
> 50.9	O=C(O)c1ccc[n+](Cc2ccc([N+](=O)[O-])cc2)c1.[Br-]
> 53.8	O=C(NCc1cccnc1)C(=O)NCC(c1ccco1)N1CCOCC1 (stereo unspecified)
> 32.3	Cl.N[C@H]1C(O)O[C@H](CO)[C@@H](O)[C@@H]1O (stereo partly specified)
47.5 (≈ 142 µM)	O=C(CNC(=O)c1ccccc1F)NCCc1ccc(Cl)cc1
> 59.9	COc1cc(CC(=O)N(CC(C)C)C2CCS(=O)(=O)C2)cc(OC)c1OC (stereo unspecified)
47.3 (≈ 143 µM)	Cn1cccc1C(=O)NCC(c1ccc(F)cc1)N1CCOCC1 (stereo unspecified)
> 48.8	O=C(O)c1ccc(CN2C(=O)c3ccc(C(=O)O)cc3C2=O)cc1
0.6 (≈ 1.75 µM)	CC(C)(C)c1nc(SCC(=O)NC2CCCC2)c2ccccc2n1
38.2 (≈ 147 µM)	CC(=O)c1ccccc1OCC(O)Cn1ccnc1 (stereo unspecified)
42.1 (≈ 120 µM)	Cc1onc(-c2c(Cl)cccc2Cl)c1C(O)c1ccc(F)cc1 (stereo unspecified)
> 39.5	O=C(Nc1ccc(O)cc1C(=O)O)c1cccs1
> 50.9	COc1cc(OC)c(C2C(C#N)=C(C)NC(C)=C2C#N)c(C(=O)O)c1
> 60.1	C=CCN1C(=O)C(Cc2ccccc2Cl)SC1=Nc1ccc(C(=O)O)cc1 (stereo unspecified)
> 65.5	CCOC(=O)C1=C(C)NC(C)=C(C(=O)OCC)C1C(=O)OCC(=O)NC1CCCCC1
> 45.9	Cl.NCCc1nnc(SCc2ccccc2Cl)o1
> 48.3	Cc1cc(C)nc(SCCC(=O)Nc2ccccc2Cl)n1
1.4 (≈ 5.59 µM)	O=c1[nH]c2ccccc2nc1CCc1ccccc1

solubility kinetic [µg/mL]	SMILES
31.9 (≈ 107 µM)	COc1ccc(-c2[nH]c3ccccc3c2SCCN)cc1
< 0.8	CCOc1ccc(CNC(c2ccccc2)c2ccccc2)cc1.Cl
50.1 (≈ 129 µM)	O=C(CNC(=O)c1ccccc1)NCC(=O)OCC(=O)c1ccccc1Cl
4.5 (≈ 14 µM)	O=C(COC(=O)CCc1c[nH]c2ccccc12)Nc1ccccc1
> 41.6	NC(=O)CN1CCN(Cc2ccc3c(c2)OCO3)CC1
35.4 (≈ 120 µM)	Cc1ccc(CN(Cc2ccco2)C(=O)c2ccco2)cc1
17.7 (≈ 87.1 µM)	C/C=C/C(=O)N(CC)c1ccccc1C
> 39.8	Cc1c(C(=O)NN2CCOCC2)cccc1[N+](=O)[O-]
> 63.1	O=C(O)c1cccc(Nc2nc3ccccc3nc2NS(=O)(=O)c2ccccc2)c1
46.5 (≈ 140 µM)	CCC(OC(=O)c1ccco1)C(=O)NCc1ccc2c(c1)OCO2 (stereo unspecified)
> 43.3	CC1CCCCN1C(=O)CCn1c(=O)oc2ccccc21 (stereo unspecified)
42.9 (≈ 141 µM)	O=C(c1cc(=O)[nH]c2ccccc12)N1CCc2ccccc2C1
11.8 (≈ 36 µM)	COc1ccc(C(=O)NCC2OCCc3ccccc32)cc1OC (stereo unspecified)
> 24.8	CCOC(=O)c1ccc(N)cc1
25.6 (≈ 104 µM)	CC(O)c1cccc(NC(=O)C2CCCCC2)c1 (stereo unspecified)
> 45.5	COc1ccc(C(=O)NCCc2ccc(F)cc2)cc1OC
27.7 (≈ 101 µM)	CC(NC(=S)Nc1ccc(F)cc1)c1ccccc1 (stereo unspecified)
< 0.2	[O-][N+]1=c2ccc(Nc3ccccc3)cc2=NC12CCCCC2
> 41.3	NC(=O)c1ccc(NC(=S)NCc2ccco2)cc1
> 46.6	CC1CC1C(=O)Nc1nc2ccc(S(C)(=O)=O)cc2s1 (stereo unspecified)
8.2 (≈ 20.8 µM)	O=C(Nc1cccc(S(=O)(=O)N2CCCCCC2)c1)c1ccc(Cl)nc1
> 42.5	CCOC(=O)c1cn2nc(Oc3ccccc3)ccc2n1
> 41.6	Cc1cccc(S(=O)(=O)c2c(C)cc(C)[nH]c2=O)c1
51 (≈ 144 µM)	CC(C)(C)OC(=O)N1CCC(CNC(=O)c2ccc(F)cc2F)CC1

solubility kinetic [µg/mL]	SMILES
24.9 (≈ 84.9 µM)	O=C(Nc1ncc([N+](=O)[O-])s1)c1ccc2c(c1)OCO2
> 49.7	O=C(Nc1c(-c2ccccc2)nc2ccccn12)c1ccccc1F
> 40.7	CN(C)c1ccc(/C=N/NC(=O)c2ccn(C)n2)cc1
> 37.7	CCNC(=O)COC(=O)/C=C/c1cccc(F)c1
> 32.7	COc1ccccc1C(O)c1nccn1C (stereo unspecified)
> 34.7	NC(=S)Nc1ccccc1Br
> 43.3	Cc1ccccc1CN1CCN(CC2CC2)CC1CCO (stereo unspecified)
> 36.3	O=C(c1cc([N+](=O)[O-])[nH]n1)N1CCSCC1
> 55	Cc1cc(=O)n2c3ccccc3n(CC(O)CN3CCOCC3)c2c1C#N (stereo unspecified)
5.1 (≈ 15.5 µM)	N=C1C(c2nc3ccccc3s2)=C(O)CN1C1CCC(O)CC1 (stereo unspecified)
< 0.2	CCOC(=O)c1cc(C#N)c(Nc2ccc(C)cc2)nc1C(F)(F)F
> 50.8	CCOc1ccccc1NC(=O)c1cccc(N2C(=O)CCC2=O)c1
> 46.9	NCCc1nnc(SCC(=O)Nc2cccc(Cl)c2)o1
18.5 (≈ 52.5 µM)	CCN(CC)CCn1c(NC(=O)c2ccccc2O)nc2ccccc21
17.1 (≈ 50.1 µM)	O=C(CN1CCc2ccccc2C1)NCC(=O)Nc1ccc(F)cc1
> 33.3	NCCCNC(=O)c1ccc(/C=N/O)nc1
8.9 (≈ 23.4 µM)	COc1ccc(CCNC(=O)COC(=O)c2cc(=O)[nH]c3ccccc23)cc1
61.7 (≈ 142 µM)	CN(CC(=O)N1CCN(Cc2ccccc2)CC1)C(=O)Cc1ccc(Cl)c(Cl)c1
2.7 (≈ 7.96 µM)	CCCOc1ccc(NC(=O)CC2Nc3ccccc3NC2=O)cc1 (stereo unspecified)
43 (≈ 140 µM)	O=C(c1ccc2[nH]c(=O)c(=O)[nH]c2c1)N1CCc2ccccc21
30.2 (≈ 131 µM)	C=CCn1ccc2c([N+](=O)[O-])cccc2c1=O
> 49.6	COc1ccccc1N1CC(C(=O)NC2CCCCCC2)CC1=O (stereo unspecified)
64.2 (≈ 125 µM)	COCCN(C(=O)COC(=O)Cc1c(C)nc2ccccc2c1C)c1c(N)n(CC(C)C)c(=O)[nH]c1=O
5.2	Cl.Nc1nc2cc3ccccc3cc2[nH]c1=O

solubility kinetic [µg/mL]	SMILES
< 0.4	CCOC(=O)c1sc(NC(=O)c2ccccc2OCC)nc1C
25.6 (≈ 132 µM)	CNC(=S)NCCc1ccccc1
33.9 (≈ 116 µM)	COc1ccc(N=Cc2c(OC)ccc3ccccc23)cc1
> 45.2	O=S(=O)(c1ccc(NCCCO)nc1)N1CCOCC1
0.5 (≈ 1.71 µM)	CCOc1ccccc1Nc1cc(C)c2cccc(C)c2n1
2.4 (≈ 6.05 µM)	CCn1c2ccccc2c2nc3cc(S(=O)(=O)N4CCOCC4)ccc3nc21
> 40	CCCC(=O)N1CCC(CCC(=O)NC2CC2)CC1
14.5 (≈ 42.5 µM)	Cc1cccc(C(=O)OCC(=O)NCc2ccc3c(c2)OCO3)c1C
> 60.4	CCCCN(C(=O)COC(=O)c1ccccc1)c1c(N)n(CCC)c(=O)[nH]c1=O
10.2 (≈ 31.4 µM)	COc1ccc(NCC(O)Cn2c(C)c(C)c3ccccc32)cc1 (stereo unspecified)
> 73.1	CSCC[C@H](NC(=O)c1cccc(S(=O)(=O)N2CCN(C)CC2)c1)c1nc2ccccc2[nH]1
48.7 (≈ 149 µM)	Cn1cccc1C(=O)OCC(=O)N1CCN(c2ccccc2)CC1
28.9 (≈ 108 µM)	COc1cccc(C(O)c2nc3ccccc3n2C)c1 (stereo unspecified)
52.7 (≈ 120 µM)	Cc1ccc(S(=O)(=O)N2CCCCC2)cc1NC(=O)CSc1nc(N)cc(=O)[nH]1
27.9 (≈ 139 µM)	S=c1[nH]c2cc3ccccc3cc2[nH]1
> 54.9	COc1cc2c(cc1OC)CN(C(=O)c1ccc(Br)o1)CC2
63.7 (≈ 148 µM)	O=C(C1Cc2ccccc2CN1S(=O)(=O)c1ccccc1[N+](=O)[O-])N1CCOCC1 (stereo unspecified)
> 50.7	O=C(CS(=O)(=O)Cc1ccccc1)NCc1ccccc1Cl
18.4 (≈ 72.7 µM)	Cn1ccsc1=NC(=O)c1ccc([N+](=O)[O-])o1
40 (≈ 142 µM)	O=C(COC(=O)c1cccs1)NCc1cccs1
> 48.8	O=C(O)CCC(CNS(=O)(=O)c1ccccc1)C(F)(F)F (stereo unspecified)
6.3 (≈ 23.4 µM)	O=[N+]([O-])c1ccc(CNc2cccc(Cl)c2)s1
1 (≈ 3.16 µM)	CCOc1ccc(C)cc1S(=O)(=O)n1cnc2ccccc21
> 43.7	CCOc1ccc(NC(=O)CCN2CCN(C)CC2)cc1

solubility kinetic [µg/mL]	SMILES
< 0.3	CCOc1ccc(NC(=S)NC(=O)/C=C/c2ccco2)cc1
40.1 (≈ 135 µM)	O=C(Cc1c(Cl)cccc1Cl)OCc1ccccn1
36.7 (≈ 107 µM)	CC1CCN(CCc2nc3cc(NC(=O)C(C)C)ccc3n2C)CC1
> 38.7	O=C(CSc1nncs1)Nc1nccs1
10.2 (≈ 36.7 µM)	Cc1cc(C)nc(NC(=O)Nc2ccc(F)cc2F)n1
> 51.5	CC(C)(C)OC(=O)NCCC(=O)N/N=C/c1ccc2nccnc2c1
34.9 (≈ 130 µM)	O=C(NCc1ccc(F)cc1)c1cc2ccccc2o1
35.5	Cc1ccc(SCCN2CCN(C)CC2)cc1.Cl
> 44.7	NS(=O)(=O)c1ccc(NC(=O)COC(=O)C2CC2)cc1
> 25.5	COC(=O)/C=C1\NCCNC1=O
3.7 (≈ 12.9 µM)	COc1cccc(NC(=O)Nc2ccc3c(c2)OCO3)c1
40.6 (≈ 128 µM)	COc1ccccc1C(=O)c1c(C)c(CCC#N)n2ccccc12
12.5 (≈ 55 µM)	CC(C)Oc1ncnc2c1[nH]c1ccccc12
12.2 (≈ 36.6 µM)	Cc1ccc(NC(=S)N(CCN(C)C)Cc2cccs2)cc1
> 41.4	COc1ccc(NC(=O)c2nn(C)cc2[N+](=O)[O-])cc1
> 52.7	COc1cc(NC(=S)NC2CC(C)(C)NC(C)(C)C2)cc(OC)c1
24.7 (≈ 112 µM)	CCOC(=O)c1cc2c(nc1N)CCCC2
46.5 (≈ 132 µM)	COc1cc(CC(=O)OCC(=O)N2CCCCC2)cc(OC)c1OC
53.9 (≈ 142 µM)	Cc1ccc(N(CN2C(=O)C3C4CCC(C4)C3C2=O)C(=O)c2ccco2)cc1 (stereo unspecified)
> 24.5	CCNC1CCS(=O)(=O)C1 (stereo unspecified)
> 35.8	O=C(Nc1cccnc1Cl)c1cccs1
43.2	CC(CN1CCOCC1)OC(=O)c1cccc(Cl)c1.Cl (stereo unspecified)
40.4 (≈ 121 µM)	Cc1cc(=O)n(CC(=O)Nc2cc(Cl)ccc2C)c(C(C)C)n1
> 40.4	O=C(NCc1cccnc1)c1cc(C(=O)C2CC2)c[nH]1

SMILES	solubility kinetic [µg/mL]
CSc1ccc(C(=O)C2CCCN(C)C2)cc1 (stereo unspecified)	> 37.4
